Assay results reported in patent publication US20240158446A1, “CYCLIC COMPOUND HAVING SELECTIVE INHIBITORY ACTION ON KRAS OVER HRAS AND NRAS” (CHUGAI SEIYAKU KABUSHIKI KAISHA, priority 2021, published 2024).
Where two headings read alike, the source gives them in different places. *1 amine or outer side, *2 acyl side, *3 side chain or, on linkers, in order; H or OH if unused. Where a SMILES comes first, the peptide text is derived from it. Bridges are numbered along the chain shown (N, C = ends). [ ]: non-standard residue; d: D form. The star is where a group is joined. hPhe(3-Cl-4-CF3) = N[C@@H](CCc1ccc(C(F)(F)F)c(Cl)c1)C(=O)O; X45 = O=C([C@H](Cc1ccc(C(F)(F)F)cc1)N(CCCF)[*:1])[*:2]; NPrPhe(4-CF3) = CCCN[C@@H](Cc1ccc(C(F)(F)F)cc1)C(=O)O; NMeGly(cPent) = CN[C@H](C(=O)O)C1CCCC1; NMeD = CN[C@@H](CC(=O)O)C(=O)O; NMeL = CN[C@@H](CC(C)C)C(=O)O; Morpholide = C1CN(*)CCO1; NMeA = CN[C@@H](C)C(=O)O; Ac5c = NC1(C(=O)O)CCCC1; Aze = O=C(O)[C@@H]1CCN1; NPrGly = CCCNCC(=O)O; Sar = CNCC(=O)O

Experiments:
[1] = molecular target: GDP-bound HRAS wild-type protein (Homo sapiens, UniProt P01112); assay: Binding to HRAS by surface plasmon resonance (SPR), Single Cycle Kinetics; conditions: for HRAS/KRAS (ratio of KD value with respect to HRAS to KD value with respect to KRAS) / HRAS/KRAS (ratio of KD value for HRAS to KD value for KRAS): SPR, GDP-bound HRAS wild-type protein vs GDP-bound KRAS wild-type protein
Chain of GDP-bound HRAS wild-type protein (P01112 whole entry): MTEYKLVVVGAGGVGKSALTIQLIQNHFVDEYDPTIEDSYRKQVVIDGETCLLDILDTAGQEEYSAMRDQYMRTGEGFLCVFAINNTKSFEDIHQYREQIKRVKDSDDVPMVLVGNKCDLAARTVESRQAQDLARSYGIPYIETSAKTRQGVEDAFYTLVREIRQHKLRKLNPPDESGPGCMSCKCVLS

[2] = molecular target: GDP-bound KRAS wild-type protein (Homo sapiens, UniProt P01116); assay: Binding to KRAS by surface plasmon resonance (SPR), Single Cycle Kinetics; conditions: GDP-bound KRAS wild-type protein, 1:1 binding model, read-out: KRAS KD
Chain of GDP-bound KRAS wild-type protein (P01116 whole entry): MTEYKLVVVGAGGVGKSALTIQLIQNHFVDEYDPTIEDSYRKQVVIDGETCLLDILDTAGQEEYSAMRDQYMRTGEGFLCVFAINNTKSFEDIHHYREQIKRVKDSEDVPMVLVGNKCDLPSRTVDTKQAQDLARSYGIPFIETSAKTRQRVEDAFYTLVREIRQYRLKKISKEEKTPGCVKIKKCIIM

[3] = molecular target: GDP-bound NRAS wild-type protein (Homo sapiens, UniProt P01111); assay: Binding to NRAS by surface plasmon resonance (SPR), Single Cycle Kinetics; conditions: for NRAS/KRAS (ratio of KD value with respect to NRAS to KD value with respect to KRAS) / NRAS/KRAS (ratio of KD value for NRAS to KD value for KRAS): SPR, GDP-bound NRAS wild-type protein vs GDP-bound KRAS wild-type protein
Chain of GDP-bound NRAS wild-type protein (P01111 whole entry): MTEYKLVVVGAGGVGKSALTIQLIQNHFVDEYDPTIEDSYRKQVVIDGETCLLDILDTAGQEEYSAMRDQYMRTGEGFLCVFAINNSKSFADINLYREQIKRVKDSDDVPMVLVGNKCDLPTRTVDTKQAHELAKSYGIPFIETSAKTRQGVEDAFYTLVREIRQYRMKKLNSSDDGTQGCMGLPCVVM

Row | SMILES | Kd ([2]; SPR Single Cycle Kinetics) [nM] | HRAS/KRAS (ratio of KD value with respect to HRAS to KD value with respect to KRAS) [1] | NRAS/KRAS (ratio of KD value with respect to NRAS to KD value with respect to KRAS) [3] | further results
1 | CC[C@H](C)[C@@H]1NC(=O)[C@H](CC(C)C)N(C)C(=O)C[C@@H](C(=O)N2CCCCC2)N(C)C(=O)[C@H](C2CCCC2)N(C)C(=O)C2(CCCC2)NC(=O)[C@@H]2CCCN2C(=O)[C@H](CCc2cc(F)c(C(F)(F)F)c(F)c2)NC(=O)CN(C)C(=O)[C@H](Cc2ccc(C(F)(F)F)cc2)N2CCCCC[C@@H](C2=O)N(C)C(=O)CN(C)C1=O [PP0510] | 12 | B (a compound having 3 or more and less than 10 is denoted as B) | B (a compound having 3 or more and less than 10 is denoted as B) | 
2 | CCO[C@@H]1C[C@H]2C(=O)NC3(CCC3)C(=O)N(C)[C@@H](C3CCCC3)C(=O)N(C)[C@H](C(=O)N(C)CC)CC(=O)N(C)[C@@H](CC)C(=O)N[C@@H]([C@@H](C)CC)C(=O)N(C)CC(=O)N(C)[C@H]3C/C=C\CCN(C3=O)[C@@H](CC3CCCCC3)C(=O)N(C)CC(=O)N[C@@H](CCc3cc(F)c(C(F)(F)F)c(F)c3)C(=O)N2C1 [PP1552] |  |  |  | HRAS/KRAS (ratio of KD value for HRAS to KD value for KRAS) ([1]; KD ratio class): A (a compound having 10 or more and less than 20 is denoted as A); Kd ([2]; SPR, Single Cycle Kinetics): 0.19 nM; NRAS/KRAS (ratio of KD value for NRAS to KD value for KRAS) ([3]; KD ratio class): A (a compound having 10 or more and less than 20 is denoted as A)
3 | CCO[C@@H]1C[C@H]2C(=O)NC3(CC(C)(C)C3)C(=O)N(C)[C@@H](C(CC)CC)C(=O)N(C)[C@H](C(=O)N3CCCC3)CC(=O)N(C)[C@H]3CCC/C=C/c4ccc(cc4)C[C@@H](C(=O)N(C)CC(=O)N[C@@H](CCc4cc(F)c(C(F)(F)F)c(F)c4)C(=O)N2C1)N1CC/C=C\C[C@@H](C1=O)N(C)C(=O)CN(C)C(=O)[C@H]([C@@H](C)CC)NC3=O [PP2576] | 0.14 |  |  | HRAS/KRAS (ratio of KD value with respect to GDP-bound HRAS wild-type protein to KD value with respect to KRAS) ([1]; SPR KD ratio HRAS/KRAS, class symbols): A (a compound having 10 or more and less than 20 is denoted as A); NRAS/KRAS (ratio of KD value with respect to GDP-bound NRAS wild-type protein to KD value with respect to KRAS) ([3]; SPR KD ratio NRAS/KRAS, class symbols): A (a compound having 10 or more and less than 20 is denoted as A)

Continued, in another order:

Row | Kd ([2]; SPR Single Cycle Kinetics) [nM] | SMILES | HRAS/KRAS (ratio of KD value with respect to HRAS to KD value with respect to KRAS) [1] | NRAS/KRAS (ratio of KD value with respect to NRAS to KD value with respect to KRAS) [3] | further results
4 | 0.55 | CCCN1CC(=O)N(C)CC(=O)N(CCC)[C@@H](Cc2ccc(C(F)(F)F)cc2)C(=O)N(C)CC(=O)N[C@@H](CCc2ccc(C(F)(F)F)c(Cl)c2)C(=O)N2CCC[C@H]2C(=O)NC2(CCCC2)C(=O)N(C)[C@@H](C2CCCC2)C(=O)N(C)[C@H](C(=O)N2CCOCC2)CC(=O)N(C)[C@@H](CC(C)C)C(=O)N[C@@H]([C@@H](C)CC)C1=O [PP0253] ([NMeL]I[NPrGly][Sar][NPrPhe(4-CF3)][Sar][hPhe(3-Cl-4-CF3)]P[Ac5c][NMeGly(cPent)][NMeD]-Morpholide; lactam N-11) |  |  | HRAS/KRAS (ratio of KD value for HRAS to KD value for KRAS) [1]: B (a compound having 3 or more and less than 10 is denoted as B); NRAS/KRAS (ratio of KD value for NRAS to KD value for KRAS) [3]: B (a compound having 3 or more and less than 10 is denoted as B)
5 | 0.14 | CC[C@H](C)[C@@H]1NC(=O)[C@H](CC(C)C)N(C)C(=O)C[C@@H](C(=O)N2CCOCC2)N(C)C(=O)[C@H](C2CCCC2)N(C)C(=O)C2(CCCC2)NC(=O)[C@@H]2CCCN2C(=O)[C@H](CCc2ccc(C(F)(F)F)c(Cl)c2)NC(=O)CN(C)C(=O)[C@H](Cc2ccc(C(F)(F)F)cc2)N(CCCF)C(=O)[C@@H]2CCN2C(=O)[C@H](C)N(C)C1=O [PP0525] ([NMeL]I[NMeA][Aze][X45][Sar][hPhe(3-Cl-4-CF3)]P[Ac5c][NMeGly(cPent)][NMeD]-Morpholide; lactam N-11) | B (a compound having 3 or more and less than 10 is denoted as B) | C (A compound having a KD ratio of 0.1 or more and less than 3 is denoted as C) | 
